Measurements from PMC10440746, “Biosynthesis of 3,6-Dideoxy-heptoses for the Capsular Polysaccharides of Campylobacter jejuni” (Biochemistry, 2023).

How the values were obtained:
C3-dehydratase (HS:5) = system: T1, C3-dehydratase (HS:5); assay: coupled glutamate dehydrogenase assay, NADPH oxidation at […] nm; type: biochemical, Campylobacter; conditions: pH 7.5, 25 °C; 0.2 mM PLP, 4.0 mM L-glutamate; 50 mM ammonium bicarbonate; apparent
T1 construct: full length, N-terminal 21-residue His6 tag (pET-28a), codon-optimised gene, E. coli BL21(DE3)

C5-epimerase (HS:5) = conditions: pH 7.5, 25 °C; 50 mM HEPES/KOH; 300 μM NADPH; apparent

Nc1nc2c(ncn2[C@@H]2O[C@H](COP(=O)(O)OP(=O)(O)O[C@H]3O[C@H](CCO)C(=O)[C@H](O)[C@@H]3O)[C@@H](O)[C@H]2O)c(=O)[nH]1 [compound 5, GDP-6-deoxy-4-keto-α-D-lyxo-heptose]
Km (C3-dehydratase (HS:5)): 840 ± 60 µM

Nc1nc2c(ncn2[C@@H]2O[C@H](COP(=O)(O)OP(=O)(O)O[C@H]3O[C@H](CCO)C(=O)C[C@@H]3O)[C@@H](O)[C@H]2O)c(=O)[nH]1 [compound 8, GDP-3,6-dideoxy-4-keto-α-D-threo-heptose]
Km (C5-epimerase (HS:5)): 480 ± 80 µM
